These results are taken from patent US20210276987A1, “PHARMACEUTICAL AGENTS FOR USE IN SMOKING AND TOBACCO CESSATION” (Washington State University, priority 2018, published 2021).

One data set concerns the target T1, CYP2A6 (Homo sapiens, UniProt P11509).
T1 sequence (P11509 1-494): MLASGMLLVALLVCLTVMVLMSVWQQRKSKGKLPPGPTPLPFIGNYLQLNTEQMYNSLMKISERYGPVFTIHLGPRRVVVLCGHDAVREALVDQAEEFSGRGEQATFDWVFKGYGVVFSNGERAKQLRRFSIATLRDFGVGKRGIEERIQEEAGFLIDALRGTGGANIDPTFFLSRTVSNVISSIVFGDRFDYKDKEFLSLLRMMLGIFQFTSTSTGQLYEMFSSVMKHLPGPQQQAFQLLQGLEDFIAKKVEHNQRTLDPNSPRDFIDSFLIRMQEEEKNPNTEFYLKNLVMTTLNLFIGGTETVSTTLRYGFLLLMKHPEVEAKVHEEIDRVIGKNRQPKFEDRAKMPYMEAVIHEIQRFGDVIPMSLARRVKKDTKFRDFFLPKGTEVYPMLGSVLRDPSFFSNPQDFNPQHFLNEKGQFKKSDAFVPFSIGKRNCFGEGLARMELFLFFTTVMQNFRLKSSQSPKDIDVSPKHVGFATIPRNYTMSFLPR
The conditions noted are these: read-out: IC50 against CYP2A6; Table 5, alkyne linker agents; pooled human liver microsomes, coumarin […].

A further data set addresses T2, CYP2B6 (Homo sapiens, UniProt P20813).
T2 sequence (P20813 1-491): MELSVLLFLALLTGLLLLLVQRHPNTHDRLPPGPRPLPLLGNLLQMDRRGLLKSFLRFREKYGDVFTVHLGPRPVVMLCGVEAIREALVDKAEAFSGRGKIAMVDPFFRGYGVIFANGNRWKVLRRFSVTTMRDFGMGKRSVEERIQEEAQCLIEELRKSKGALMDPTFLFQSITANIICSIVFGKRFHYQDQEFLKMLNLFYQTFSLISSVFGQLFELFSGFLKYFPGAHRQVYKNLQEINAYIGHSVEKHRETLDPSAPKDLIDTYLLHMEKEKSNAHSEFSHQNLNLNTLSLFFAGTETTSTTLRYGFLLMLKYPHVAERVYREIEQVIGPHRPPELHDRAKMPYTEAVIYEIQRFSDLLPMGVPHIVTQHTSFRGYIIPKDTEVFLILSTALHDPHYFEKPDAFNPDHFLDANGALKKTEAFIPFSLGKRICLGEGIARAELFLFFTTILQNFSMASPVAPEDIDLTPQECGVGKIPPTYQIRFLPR
The following applies: Table 6.

A further data set has as its target UGT2B4 (Homo sapiens, UniProt P06133). The following applies: Table 10.
The next data set deals with UGT2B17 (Homo sapiens, UniProt O75795). The conditions noted are these: Table 10.
Sequence of UGT2B17 (O75795 24-530): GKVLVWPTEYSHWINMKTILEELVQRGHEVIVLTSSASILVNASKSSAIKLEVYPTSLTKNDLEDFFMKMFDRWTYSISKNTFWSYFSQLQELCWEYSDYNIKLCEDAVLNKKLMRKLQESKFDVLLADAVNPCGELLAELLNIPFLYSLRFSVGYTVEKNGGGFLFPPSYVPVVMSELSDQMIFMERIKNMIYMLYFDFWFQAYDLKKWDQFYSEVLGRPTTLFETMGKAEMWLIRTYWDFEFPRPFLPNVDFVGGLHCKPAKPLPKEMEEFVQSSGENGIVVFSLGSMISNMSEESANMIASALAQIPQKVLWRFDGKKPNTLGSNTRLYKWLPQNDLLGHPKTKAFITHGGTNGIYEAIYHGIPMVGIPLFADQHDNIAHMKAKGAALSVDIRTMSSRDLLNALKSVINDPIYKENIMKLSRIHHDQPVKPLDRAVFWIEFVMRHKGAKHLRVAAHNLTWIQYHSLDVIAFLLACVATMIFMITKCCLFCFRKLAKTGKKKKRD
A further data set addresses CYP2C9 (Homo sapiens, UniProt P11712). Put plainly: CYP2C9 inhibition assay, human liver microsomes, diclofenac probe (cocktail). The following applies: Table 6.
The target of another data set is T3, CYP1A2 (Homo sapiens, UniProt P05177).
T3 sequence (P05177 1-516): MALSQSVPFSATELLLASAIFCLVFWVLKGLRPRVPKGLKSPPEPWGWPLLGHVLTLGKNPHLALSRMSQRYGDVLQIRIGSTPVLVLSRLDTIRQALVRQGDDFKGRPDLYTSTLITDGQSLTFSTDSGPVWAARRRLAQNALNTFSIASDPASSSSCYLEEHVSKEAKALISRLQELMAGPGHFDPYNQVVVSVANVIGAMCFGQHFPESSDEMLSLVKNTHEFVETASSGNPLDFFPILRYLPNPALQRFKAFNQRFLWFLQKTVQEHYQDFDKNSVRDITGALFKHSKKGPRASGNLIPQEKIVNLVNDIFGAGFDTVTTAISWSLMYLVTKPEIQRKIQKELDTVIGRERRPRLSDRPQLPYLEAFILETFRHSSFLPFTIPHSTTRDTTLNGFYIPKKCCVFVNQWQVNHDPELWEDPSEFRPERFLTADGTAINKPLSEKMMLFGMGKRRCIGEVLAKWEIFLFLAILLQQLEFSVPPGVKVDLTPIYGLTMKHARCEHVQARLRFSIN
Put plainly: CYP1A2 inhibition assay, human liver microsomes, phenacetin probe (cocktail). The following applies: Table 6.

Sequence of CYP2C9 (P11712 whole entry): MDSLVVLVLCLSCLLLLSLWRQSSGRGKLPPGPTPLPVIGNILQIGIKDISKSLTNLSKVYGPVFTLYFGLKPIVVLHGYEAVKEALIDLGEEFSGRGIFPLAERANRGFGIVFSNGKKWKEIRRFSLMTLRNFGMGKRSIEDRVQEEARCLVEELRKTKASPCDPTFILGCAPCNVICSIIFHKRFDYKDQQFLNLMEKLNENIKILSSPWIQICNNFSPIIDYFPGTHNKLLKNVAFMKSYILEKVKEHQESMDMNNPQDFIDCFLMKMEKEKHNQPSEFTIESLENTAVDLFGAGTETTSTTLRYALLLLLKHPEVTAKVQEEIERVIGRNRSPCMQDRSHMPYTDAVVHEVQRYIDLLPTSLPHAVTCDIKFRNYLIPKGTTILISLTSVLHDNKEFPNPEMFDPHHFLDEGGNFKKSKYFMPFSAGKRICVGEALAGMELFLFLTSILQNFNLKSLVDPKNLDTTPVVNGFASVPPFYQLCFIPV
Sequence of UGT2B4 (P06133 24-528): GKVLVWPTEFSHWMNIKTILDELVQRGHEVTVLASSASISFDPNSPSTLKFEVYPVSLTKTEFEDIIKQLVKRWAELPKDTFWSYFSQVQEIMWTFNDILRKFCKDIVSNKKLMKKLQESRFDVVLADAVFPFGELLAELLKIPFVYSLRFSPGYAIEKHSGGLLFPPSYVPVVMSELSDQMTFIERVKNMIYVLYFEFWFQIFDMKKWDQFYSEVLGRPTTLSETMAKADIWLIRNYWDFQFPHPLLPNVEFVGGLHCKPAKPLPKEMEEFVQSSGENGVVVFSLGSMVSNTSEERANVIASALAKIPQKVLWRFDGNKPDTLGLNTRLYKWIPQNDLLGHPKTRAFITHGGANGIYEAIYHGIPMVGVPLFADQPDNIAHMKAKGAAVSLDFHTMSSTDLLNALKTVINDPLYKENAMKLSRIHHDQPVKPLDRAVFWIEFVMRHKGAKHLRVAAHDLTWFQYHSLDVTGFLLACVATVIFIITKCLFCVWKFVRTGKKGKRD

With `COc1ccncc1C#CCN` [Compound K, 3-(4-methoxypyridin-3-yl)prop-2-yn-1-amine], the IC50 on CYP2A6 turned out to be 3.4 µM. Further, on CYP2B6, the “IC50 ratio CYP2B6/CYP2A6” value is 3.2. For the same molecule, the “IC50 ratio UGT2B4/UGT2B10” value on UGT2B4 stood at 3.5. On UGT2B17, the “IC50 ratio UGT2B17/UGT2B10” value was 26. The “IC50 ratio CYP2C9/CYP2A6” value at CYP2C9 was 8.2. In addition, the “IC50 ratio CYP1A2/CYP2A6” value at CYP1A2 was determined as 7.4.
